In paper PMC11289455 (Scientific Reports, 2024):
Read-outs that look alike come from different tables or passages of the source.

Assays:
[1] = target: T1, β1 (beta-1 adrenergic receptor) (Homo sapiens, UniProt P08588); experiment: SafetyScreen44: β1; assay type: binding
T1 construct: purchased Eurofins Cerep SafetyScreen44

[2] = target: T2, COX2 (Homo sapiens, UniProt P35354); experiment: SafetyScreen44: COX2; assay type: biochemical
T2 construct: purchased Eurofins Cerep SafetyScreen44
T2 sequence (P35354 18-604): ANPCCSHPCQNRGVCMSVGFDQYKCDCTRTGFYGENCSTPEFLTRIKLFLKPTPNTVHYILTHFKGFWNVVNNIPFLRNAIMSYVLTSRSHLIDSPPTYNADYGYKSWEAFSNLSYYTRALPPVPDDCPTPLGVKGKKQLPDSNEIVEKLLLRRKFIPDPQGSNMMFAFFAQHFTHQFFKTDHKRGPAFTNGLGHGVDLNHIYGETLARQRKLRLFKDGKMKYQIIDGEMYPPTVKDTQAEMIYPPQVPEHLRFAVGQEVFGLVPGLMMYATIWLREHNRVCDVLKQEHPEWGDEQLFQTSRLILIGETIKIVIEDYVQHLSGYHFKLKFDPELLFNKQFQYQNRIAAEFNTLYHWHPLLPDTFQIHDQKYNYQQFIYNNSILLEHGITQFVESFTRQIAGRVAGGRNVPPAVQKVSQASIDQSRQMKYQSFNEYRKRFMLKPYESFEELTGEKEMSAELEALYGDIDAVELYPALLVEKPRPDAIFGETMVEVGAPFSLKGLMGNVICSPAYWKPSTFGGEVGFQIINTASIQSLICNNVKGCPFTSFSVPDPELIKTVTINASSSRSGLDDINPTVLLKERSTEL

[3] = target: T3, acetylcholinesterase (Homo sapiens, UniProt P22303); experiment: SafetyScreen44: acetylcholinesterase; assay type: biochemical
T3 construct: purchased Eurofins Cerep SafetyScreen44

[4] = Exposure in colon tissue and colon contents in TNBS studies; assay type: in vivo, rat; conditions: TNBS rats, LC-MS/MS, LLOQ=2.6 nM
Procedure: Rats were deprived of food for 24 h prior to induction of colitis by intrarectal installation of TNBS 48 mg/kg (Sigma Aldrich; Raleigh, NC) in 50% ethanol on Day 0. All dose groups (n = approximately 10/group; up to 3 separate experiments) received TNBS, except negative controls, which received only water (n = 4). Rats were weighed daily. Euthanasia by overexposure to isoflurane occurred on Day 7. Following euthanasia, blood was collected retro-orbitally into serum separator microtainer tubes (Becton Dickinson; Franklin Lakes, NJ), centrifuged (2–3 min at 4 °C, 14,000 RPM), and stored at − 80 °C. Additionally, the whole colon was excised, measured, and photographed, and then cut open to allow for collection of the contents, which were weighed and flash frozen. After removal of the contents, colons were weighed and flash frozen. […] Colon weight/length ratio was calculated.
Table S3. […] All samples were analyzed using an LC-MS/MS method (LLOQ=2.6 nM).

[5] = Plasma levels in rat skin inflammation model; assay type: in vivo; conditions: all doses except 300 mg/kg BID, data not shown
Procedure: Other groups received anti–IL-23p19 antibody (Santa Cruz Biotechnology; Catalog #sc-271279LS) or isotype antibody via intraperitoneal injection on Days -1 and 3, as additional controls. On Day 0 through Day 3, rats were anesthetized with isoflurane and injected with 1.5 μg of recombinant rat IL-23 (R&D Systems) in 20 μL PBS, intradermally, in the right ear; controls received an equivalent volume of PBS. Body weight was recorded daily. Thickness of the right (IL-23 injected) ear was measured to the nearest 0.05 mm using calipers (Kroeplin GmbH; Schlüchtern, Germany). Animals were euthanized by CO2 asphyxiation on Day 4. Blood was collected via cardiac puncture, deposited into K2EDTA tubes, and centrifuged at 2000 × g for 20 min. Plasma was collected into 5% volume protease inhibitor and stored at − 80 °C until bioanalysis by LC–MS. For gene expression analyses (IL-22, IL-17A, and IL-17F), the right ear was excised, flash frozen, homogenized, and reverse transcription polymerase chain reaction (RT-PCR) was performed using a TaqMan gene expression array (ThermoFisher Scientific).

T3 sequence (P22303 32-614): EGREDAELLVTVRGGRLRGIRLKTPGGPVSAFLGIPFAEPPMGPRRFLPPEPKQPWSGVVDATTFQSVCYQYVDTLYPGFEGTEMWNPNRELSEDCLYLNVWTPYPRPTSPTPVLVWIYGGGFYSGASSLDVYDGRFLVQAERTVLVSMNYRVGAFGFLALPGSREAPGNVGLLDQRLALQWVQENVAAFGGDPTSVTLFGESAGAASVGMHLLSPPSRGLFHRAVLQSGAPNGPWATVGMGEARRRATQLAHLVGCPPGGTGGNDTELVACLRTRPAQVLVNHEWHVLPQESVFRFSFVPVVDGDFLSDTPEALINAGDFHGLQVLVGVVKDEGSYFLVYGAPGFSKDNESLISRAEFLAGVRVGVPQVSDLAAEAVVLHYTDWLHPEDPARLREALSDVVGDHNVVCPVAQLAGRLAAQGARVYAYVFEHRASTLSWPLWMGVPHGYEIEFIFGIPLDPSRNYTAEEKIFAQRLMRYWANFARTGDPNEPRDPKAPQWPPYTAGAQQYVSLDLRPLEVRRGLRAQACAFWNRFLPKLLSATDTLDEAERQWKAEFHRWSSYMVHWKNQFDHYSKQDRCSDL
T1 sequence (P08588 whole entry): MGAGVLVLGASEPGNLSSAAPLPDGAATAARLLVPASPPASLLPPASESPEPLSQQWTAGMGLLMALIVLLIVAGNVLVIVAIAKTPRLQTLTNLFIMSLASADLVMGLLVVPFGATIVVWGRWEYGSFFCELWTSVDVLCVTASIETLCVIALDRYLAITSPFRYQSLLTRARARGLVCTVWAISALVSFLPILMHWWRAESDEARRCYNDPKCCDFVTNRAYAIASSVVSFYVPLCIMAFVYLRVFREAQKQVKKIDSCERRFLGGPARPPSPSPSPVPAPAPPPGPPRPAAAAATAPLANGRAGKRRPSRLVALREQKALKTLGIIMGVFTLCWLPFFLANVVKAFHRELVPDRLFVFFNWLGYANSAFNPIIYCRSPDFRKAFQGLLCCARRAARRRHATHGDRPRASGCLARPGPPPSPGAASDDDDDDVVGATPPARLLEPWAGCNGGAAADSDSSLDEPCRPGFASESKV

Compound: CC(=O)NCCCC[C@@H]1NC(=O)[C@H](Cc2c[nH]c3c(C)cccc23)NC(=O)[C@H]([C@@H](C)O)NC(=O)[C@H](CC(N)=O)NC(=O)[C@@H](NC(C)=O)C(C)(C)SSC(C)(C)[C@@H](C(=O)N[C@@H](Cc2ccc(OCCN)cc2)C(=O)N[C@@H](Cc2ccc3ccccc3c2)C(=O)NC2(C(=O)N[C@@H](CCC(=O)O)C(=O)N[C@@H](CC(N)=O)C(=O)N[C@@H](Cc3cccnc3)C(=O)N(C)CC(N)=O)CCOCC2)NC1=O [JNJ-77242113, S^3,1,S^3,6-cyclo[N-acetyl-3-sulfanyl-L-valyl-L-asparaginyl-L-threonyl-7-methyl-L-tryptophyl-N^6-acetyl-L-lysyl-3-sulfanyl-L-valyl-O-(2-aminoethyl)-L-tyrosyl-3-(naphthalen-2-yl)-L-alanyl-4-aminooxan-4-carbonyl-L-α-glutamyl-L-asparaginyl-3-(pyridin-3-yl)-L-alanyl-N^2-methylglycinamide]]
- inhibition at 10 µM ([1]; 1st run, read-out: Percent inhibition of control ligand binding, β1, 1st run): -5.1%
- inhibition at 10 µM ([1]; 2nd run, read-out: Percent inhibition of control ligand binding, β1, 2nd run): 7.7%
- inhibition at 10 µM ([1]; mean of 2 runs, read-out: Percent inhibition of control ligand binding, β1, Mean): 1.3%
- inhibition at 10 µM ([2]; 1st run, read-out: Percent inhibition of control ligand binding, COX2, 1st run): 7.8%
- inhibition at 10 µM ([2]; 2nd run, read-out: Percent inhibition of control ligand binding, COX2, 2nd run): -0.9%
- inhibition at 10 µM ([2]; mean of 2 runs, read-out: Percent inhibition of control ligand binding, COX2, Mean): 3.4%
- inhibition at 10 µM ([3]; 1st run, read-out: Percent inhibition of control ligand binding, acetylcholinesterase, 1st run): 9.8%
- inhibition at 10 µM ([3]; 2nd run, read-out: Percent inhibition of control ligand binding, acetylcholinesterase, 2nd run): 2.2%
- inhibition at 10 µM ([3]; mean of 2 runs, read-out: Percent inhibition of control ligand binding, acetylcholinesterase, Mean): 6%
- Colon tissue concentration ([4]; 0.03 mg/kg/day oral, Study 2): BQL
- level at time molar ([4]; 0.1 mg/kg/day oral, Study 1, read-out: Colon content concentration): 410 nM
- level at time molar ([4]; 0.1 mg/kg/day oral, Study 1, read-out: Colon tissue concentration): 12.8 nM
- level at time molar ([4]; 0.1 mg/kg/day oral, Study 2, read-out: Colon content concentration): 310 nM
- level at time molar ([4]; 0.1 mg/kg/day oral, Study 2, read-out: Colon tissue concentration): 16.8 nM
- Colon tissue concentration ([4]; 0.1 mg/kg/day oral, Study 3): BQL
- level at time molar ([4]; 0.1 mg/kg/day oral, Study 3, read-out: Colon content concentration): 299 nM
- level at time molar ([4]; 0.3 mg/kg/day oral, Study 1, read-out: Colon tissue concentration): 25.4 nM
- level at time molar ([4]; 1 mg/kg/day oral, Study 1, read-out: Colon content concentration): 3340 nM
- level at time molar ([4]; 1 mg/kg/day oral, Study 2, read-out: Colon content concentration): 3920 nM
- level at time molar ([4]; 1 mg/kg/day oral, Study 3, read-out: Colon content concentration): 3190 nM
- level at time molar ([4]; 3 mg/kg/day oral, Study 1, read-out: Colon content concentration): 9210 nM
- level at time molar ([4]; 3 mg/kg/day oral, Study 1, read-out: Colon tissue concentration): 333 nM
- level at time molar ([4]; 3 mg/kg/day oral, Study 2, read-out: Colon content concentration): 11700 nM
- level at time molar ([4]; 3 mg/kg/day oral, Study 2, read-out: Colon tissue concentration): 468 nM
- level at time molar ([4]; 3 mg/kg/day oral, Study 3, read-out: Colon content concentration): 11000 nM
- level at time molar ([4]; 3 mg/kg/day oral, Study 3, read-out: Colon tissue concentration): 268 nM
- level at time molar ([4]; male, Sprague-Dawley, rat, colon content, po, 0.03 mg/kg/day, 0.03 mg/kg/day oral, Study 2, read-out: Colon content concentration): 90.1 nM
- level at time molar ([4]; male, Sprague-Dawley, rat, colon content, po, 0.3 mg/kg/day, 0.3 mg/kg/day oral, Study 1, read-out: Colon content concentration): 973 nM
- level at time molar ([4]; male, Sprague-Dawley, rat, colon content, po, 0.3 mg/kg/day, 0.3 mg/kg/day oral, Study 2, read-out: Colon content concentration): 1050 nM
- level at time molar ([4]; male, Sprague-Dawley, rat, colon content, po, 0.3 mg/kg/day, 0.3 mg/kg/day oral, Study 3, read-out: Colon content concentration): 1680 nM
- level at time molar ([4]; male, Sprague-Dawley, rat, colon content, po, 10 mg/kg/day, 10 mg/kg/day oral, Study 2, read-out: Colon content concentration): 38700 nM
- level at time molar ([4]; male, Sprague-Dawley, rat, colon tissue, po, 0.3 mg/kg/day, 0.3 mg/kg/day oral, Study 2, read-out: Colon tissue concentration): 47.5 nM
- level at time molar ([4]; male, Sprague-Dawley, rat, colon tissue, po, 0.3 mg/kg/day, 0.3 mg/kg/day oral, Study 3, read-out: Colon tissue concentration): 23.4 nM
- level at time molar ([4]; male, Sprague-Dawley, rat, colon tissue, po, 1 mg/kg/day, 1 mg/kg/day oral, Study 1, read-out: Colon tissue concentration): 84.3 nM
- level at time molar ([4]; male, Sprague-Dawley, rat, colon tissue, po, 1 mg/kg/day, 1 mg/kg/day oral, Study 2, read-out: Colon tissue concentration): 168 nM
- level at time molar ([4]; male, Sprague-Dawley, rat, colon tissue, po, 1 mg/kg/day, 1 mg/kg/day oral, Study 3, read-out: Colon tissue concentration): 83.2 nM
- level at time molar ([4]; male, Sprague-Dawley, rat, colon tissue, po, 10 mg/kg/day, 10 mg/kg/day oral, Study 2, read-out: Colon tissue concentration): 1410 nM
- Plasma levels 16 h after the final dose [5]: below the limit of quantification
